The source of these data is patent US9937121B2, “Hydrophilic external gel formulation capable of enhancing skin permeability of tacrolimus” (CHUNG-ANG UNIVERSITY INDUSTRY-ACADEMIC COOPERATION …, priority 2014, dated 2018).

Data set [1] in a line: Solubility of tacrolimus in Transcutol P. In kind it is physicochemical. The conditions noted are these: room temperature. From the text:
Since tacrolimus is lipid-soluble and a formulation for delivering a drug is in a hydrophilic gel form, a solubilizer that can dissolve tacrolimus and then disperse tacrolimus well was needed. Also, in order to enhance the skin permeability of tacrolimus, Transcutol P was selected as a substance which can act as an enhancer for skin permeability. […] Carbopol 934P used as a polymeric base absorbs and attracts water well, has an ability to form a film, and thus is widely used as a moisturizer. Carnosine, which is a biocomponent present in human muscle and brain tissue, is known as a substance having excellent antioxidant activity, and appropriately adjusts the pH of a formulation for external application when applied to skin.

For data set [2] the following is noted: poorly soluble in water and highly permeable; cited from earlier work.

Consider `C=CC[C@@H]1/C=C(\C)C[C@H](C)C[C@H](OC)[C@H]2O[C@@](O)(C(=O)C(=O)N3CCCC[C@H]3C(=O)O[C@H](/C(C)=C/[C@@H]3CC[C@@H](O)[C@H](OC)C3)[C@H](C)[C@@H](O)CC1=O)[C@H](C)C[C@@H]2OC` [tacrolimus, Tacrolimus], for which, in data set [1], the “solubility of tacrolimus in Transcutol P” value is 240 mg/g. Moreover, in data set [2], the BCS class result was “class II”.
